We go through 21 molecules from patent publication US11945836B2, “Compositions and methods for treating CNS disorders” (Sage Therapeutics, Inc., priority 2014, dated 2024).

The experiment addresses rat brain cortical membranes ([35S]-TBPS binding). In words: Steroid inhibition of [35S]-TBPS binding (radioligand displacement). As to conditions: 3 nM [35S]-TBPS, in the presence of 5 μM GABA. How it is done: Steroid Inhibition of TBPS Binding
TBPS binding assays using rat brain cortical membranes in the presence of 5 μM GABA has been described (Gee et al, J. Pharmacol. Exp. Ther. 1987, 241, 346-353; Hawkinson et al, Mol. Pharmacol. 1994, 46, 977-985; Lewin, A. H et al., Mol. Pharmacol. 1989, 35, 189-194).
Briefly, cortices are rapidly removed following decapitation of carbon dioxide-anesthetized Sprague-Dawley rats (200-250 g). The cortices are homogenized in 10 volumes of ice-cold 0.32 M sucrose using a glass/teflon homogenizer and centrifuged at 1500×g for 10 min at 4° C. The resultant supernatants are centrifuged at 10,000×g for 20 min at 4° C. to obtain the P2 pellets. The P2 pellets are resuspended in 200 mM NaCl/50 mM Na—K phosphate pH 7.4 buffer and centrifuged at 10,000×g for 10 min at 4° C. This washing procedure is repeated twice and the pellets are resuspended in 10 volumes of buffer. Aliquots (100 uL) of the membrane suspensions are incubated with 3 nM [^35S]-TBPS and 5 μL aliquots of test drug dissolved in dimethyl sulfoxide (DMSO) (final 0.5%) in the presence of 5 μM GABA. The incubation is brought to a final volume of 1.0 mL with buffer. […] Following a 90 min incubation at room temp, the assays are terminated by filtration through glass fiber filters (Schleicher and Schuell No. 32) using a cell harvester (Brandel) and rinsed three times with ice-cold buffer. Filter bound radioactivity is measured by liquid scintillation spectrometry. Non-linear curve fitting of the overall data for each drug averaged for each concentration is done using Prism (GraphPad). […] The concentration of test compound producing 50% inhibition (IC50) of specific binding and the maximal extent of inhibition (Imax) are determined for the individual experiments with the same model used for the overall data and then the means±SEMs of the individual experiments are calculated.
Various compounds are or can be screened to determine their potential as modulators of [^35S]-TBPS binding in vitro. These assays are or can be performed in accordance with the above discussed procedures.
A word on the IC50: it is the concentration needed to halve the response being measured. Turning to `Cn1cc(C(=O)[C@H]2CC[C@H]3[C@@H]4CC[C@@H]5C[C@](C)(O)CC[C@@H]5[C@H]4CC[C@]23C)nn1` [Compound 100], the IC50 is greater than 100 nM.

In the case of `C[C@@]1(O)CC[C@@]2(C)[C@@H](CC[C@@H]3[C@@H]2CC[C@]2(C)[C@@H](C(=O)c4cccc(Cl)c4)CC[C@@H]32)C1` [Compound 101], the IC50 was greater than 100 nM.

Turning to `COC[C@]12CC[C@@](C)(O)C[C@@H]1CC[C@H]1[C@@H]3CC[C@H](C(=O)c4ccc(OC(F)(F)F)cc4)[C@@]3(C)CC[C@@H]12` [Compound 102], the IC50 lay in the range of 50 to 100 nM. The figure for `COC[C@]12CC[C@@](C)(O)C[C@@H]1CC[C@H]1[C@@H]3CC[C@H](C(=O)c4cccc(C)c4)[C@@]3(C)CC[C@@H]12` [Compound 103] is greater than 100 nM. As for `CCc1ccc(C(=O)[C@H]2CC[C@H]3[C@@H]4CC[C@H]5C[C@](C)(O)CC[C@]5(COC)[C@H]4CC[C@]23C)cc1` [Compound 104], the figure is greater than 100 nM; as for `COC[C@]12CC[C@@](C)(O)C[C@@H]1CC[C@H]1[C@@H]3CC[C@H](C(=O)c4ccccc4OC)[C@@]3(C)CC[C@@H]12` [Compound 105], greater than 100 nM; as for `COC[C@]12CC[C@@](C)(O)C[C@@H]1CC[C@H]1[C@@H]3CC[C@H](C(=O)c4cccc(OC)c4)[C@@]3(C)CC[C@@H]12` [Compound 106], greater than 100 nM. The figure for `COC[C@]12CC[C@@](C)(O)C[C@@H]1CC[C@H]1[C@@H]3CC[C@H](C(=O)c4ccc(OC)cc4)[C@@]3(C)CC[C@@H]12` [Compound 107] is 50 to 100 nM; for `C[C@@]1(O)CC[C@@]2(C)[C@@H](CC[C@@H]3[C@@H]2CC[C@]2(C)[C@@H](C(=O)c4ccc(OC(F)(F)F)cc4)CC[C@@H]32)C1` [Compound 108] it is greater than 100 nM; for `COC[C@]12CC[C@@](C)(O)C[C@@H]1CC[C@H]1[C@@H]3CC[C@H](C(=O)c4ccc(N(C)C)cc4)[C@@]3(C)CC[C@@H]12` [Compound 109] it is greater than 100 nM.

`COC[C@]12CC[C@@](C)(O)C[C@@H]1CC[C@H]1[C@@H]3CC[C@H](C(=O)c4cccc(Cl)c4)[C@@]3(C)CC[C@@H]12` [Compound 110]: the IC50 is 50 to 100 nM. The figure for `CN(C)c1ccc(C(=O)[C@H]2CC[C@H]3[C@@H]4CC[C@H]5C[C@](C)(O)CC[C@@H]5[C@H]4CC[C@]23C)cc1` [Compound 111] is greater than 100 nM; for `C[C@@]1(O)CC[C@@]2(C)[C@@H](CC[C@@H]3[C@@H]2CC[C@]2(C)[C@@H](C(=O)c4ccccn4)CC[C@@H]32)C1` [Compound 113] it is greater than 100 nM. In the case of `CN(C)c1ccc(C(=O)[C@H]2CC[C@H]3[C@@H]4CC[C@H]5C[C@](C)(O)CC[C@]5(C)[C@H]4CC[C@]23C)cc1` [Compound 114], the IC50 is greater than 100 nM. As to `COC[C@]12CC[C@@](C)(O)C[C@@H]1CC[C@H]1[C@@H]3CC[C@H](C(=O)c4ccccn4)[C@@]3(C)CC[C@@H]12` [Compound 115], the IC50 was greater than 100 nM.

As for `Cn1ccc(C(=O)[C@H]2CC[C@H]3[C@@H]4CC[C@H]5C[C@](C)(O)CC[C@]5(C)[C@H]4CC[C@]23C)n1` [Compound 123], the IC50 is greater than 100 nM.

Consider `Cn1cc(C(=O)[C@H]2CC[C@H]3[C@@H]4CC[C@H]5C[C@](C)(O)CC[C@]5(C)[C@H]4CC[C@]23C)cn1` [Compound 124], for which the half-maximal inhibitory concentration (IC50) lay in the range of 50 to 100 nM.

Take `C[C@@]1(O)CC[C@@]2(C)[C@@H](CC[C@@H]3[C@@H]2CC[C@]2(C)[C@@H](C(=O)c4cccnc4)CC[C@@H]32)C1` [Compound 125]: the IC50 was 20 to 50 nM. As for `C[C@@]1(O)CC[C@@]2(C)[C@@H](CC[C@@H]3[C@@H]2CC[C@]2(C)[C@@H](C(=O)c4ccccc4-c4ccccc4)CC[C@@H]32)C1` [Compound 127], the figure is greater than 100 nM; as for `COc1ccc2cc(C(=O)[C@H]3CC[C@H]4[C@@H]5CC[C@H]6C[C@](C)(O)CC[C@]6(C)[C@H]5CC[C@]34C)ccc2c1` [Compound 128], greater than 100 nM; as for `COc1cc(OC)cc(C(=O)[C@H]2CC[C@H]3[C@@H]4CC[C@@H]5C[C@](C)(O)CC[C@@H]5[C@H]4CC[C@]23C)c1` [Compound 130], 20 to 50 nM.
